Assay results published in patent publication US9975852B2, “Quinoline sulfonyl derivatives and uses thereof” (Health Sciences North Research Institute, priority 2013, dated 2018).
Like-named read-outs stand apart in the source and are kept apart here.

Tests used:
MCF10A = experiment: SRB antiproliferative assay, MCF10A non-cancer breast cells; format: cell-based, human; conditions: 48 h
Protocol: (§1) Antiproliferative effects were determined by a sulforhodamine B (SRB) based protocol. For a typical screening experiment, 5,000-10,000 cells were inoculated into 100 μl medium per well of a 96-well microtiter plate as described previously. […] Some of the sample wells were fixed with 25 μl of 50% trichloroacetic acid (TCA) as a control of the cell population for each cell line at the time of drug addition (Tz). An aliquot of the frozen stock was thawed and diluted to the desired final maximum test-concentration with complete medium. Two to ten-fold serial dilutions were made to provide a total of seven drug concentrations (and a control [C]). Following addition of drugs, the culture plate was incubated for additional 48 h. Cells were fixed in situ by slowly adding 25 μl of ice-cold 50% (w/v) TCA (final concentration, 10% TCA), and were then incubated for 60 min at 4° C. The supernatant was discarded, and the plate was washed five times with tap water, followed by air-dry. 50 μl of SRB solution at 0.4% (w/v) in 1% acetic acid was added to each well, and the plate was incubated for >30 min at room temperature. Unbound SRB was removed by five washes with tap water, followed by air-drying. […] The relative growth rate (%) was calculated for each of the compound concentrations according to the following formula: (Ti−Tz)/(C−Tz)×100 In the formula, time zero (Tz), control growth (C), and OD for different concentration of tested compounds (Ti). The GI50 for each compound was obtained from a non-linear Sigmoidal dose-response (variable slope) curve which is fitted by GraphPad Prism™ v.4.03 software. Values were calculated for each of these parameters if the level of activity was reached. However, if the effect was not reached or was exceeded, the value for that parameter was expressed as greater or less than the maximum or minimum concentration tested. Flow Cytometry

MDA-MB231 = experiment: SRB antiproliferative assay, MDA-MB231; format: cell-based, human
Protocol: as §1

MCF7 = experiment: SRB antiproliferative assay, MCF7; format: cell-based, human
Protocol: as §1

MDA-MB468 = experiment: SRB antiproliferative assay, MDA-MB468; format: cell-based, human
Protocol: as §1

184B5 = experiment: SRB antiproliferative assay, 184B5 non-cancer breast cells; format: cell-based, human; conditions: read-out: GI50 184B5
Protocol: as §1

Jurkat lymphoma cells = experiment: Flow cytometry, apoptosis of Jurkat lymphoma cells; format: cell-based; conditions: 6 nM Bortezomib, 48 hours
Protocol: Asynchronously growing Jurkat lymphoma cells were incubated for 48 hours in the absence (sham control) or presence of Bortezomib alone or in combination with VR-23.

MCF7 cells = experiment: Clonogenic assay using MCF7 cells; format: cell-based, human
Protocol: (§2) The clonogenic assay was carried out as described in Santi and Lee (2011).^11
Antiproliferative activity of VR-23 was evaluated on a variety of different cell lines, alone or in combination with Bortezomib, by way of SRBSRB or clonogenic assays.

U87MG brain cancer cells = experiment: Clonogenic assay, U87MG brain cancer cells; format: cell-based; conditions: Temozolomide
Protocol: as §2

MCF10A non-cancer cells = conditions: 50 μM CQ
[1] = Serum ALT liver toxicity, CD-1 mice; conditions: Chloroquine (Reference)
Protocol: (§3) Alanine Transaminase (“ALT”, SUP6001-c)/Aspartate Transaminase (“AST”, SUP6002-c) color endpoint assay kits were purchased from ID Labs Biotechnology (London, Ontario, Canada). Elevation of ALT and AST levels in serum samples is used as an indicator of liver damage/injury.
(§4) Animals were monitored for food and water consumption every day, and their body weights and tumor volumes were measured twice per week. Tumor volumes were measured with a digital caliper and were determined by using the following formula: ½ length×width^2. Blood samples were collected via cardiac puncture and processed further for ALT and AST measurements. The animals were then immediately euthanized by carbon dioxide.
(§5) Changes in body weight and the amount and ratio of alanine transaminase (ALT)/aspartate transaminase (AST) were used to measure toxic effects.
Ratio of <2 is considered normal.

[2] = tested on: MDA-MB231 human metastatic breast cancer cells; experiment: Xenograft antitumor activity, ATH490 mice engrafted with MDA-MB231; format: in vivo; design: Tumor size D7 / Tumor size D15 / Tumor size D18 / Tumor size D22: unit not given here
Protocol: Five-week-old female CD-1 and ATH490 (strain code 490) athymic nude mice were purchased from Charles River (Quebec, Canada). The MDA-MB231 human metastatic breast cancer cells were obtained from the American Tissue Culture Collection (ATCC, Manassas, Va., USA). Cells were maintained under humidified condition at 37° C. and 5% CO2 in DMEM high glucose medium (ATCC) supplemented with 10% fetal bovine serum and antibiotics. All animal experiments, including animal handling, care, treatment and endpoint determination, were reviewed and approved by the Laurentian University Animal Care Committee (ACC) and carried out at Laurentian University Animal Care facility (Sudbury, Ontario, Canada)
To determine anti-tumor activity of VR-23 in an animal model, a xenograft model of human breast cancer cells in athymic nude mice was established. Exponentially growing MDA-MB231 cells were harvested and counted for inoculation into mice. Each mouse was subcutaneously injected at the flank with 10×10^6 cells in 0.2 ml ice cold 1×PBS. When tumor size reached 4-5 mm in diameter (n=4-5 per group), mice were randomly assigned into five (or more) groups.

[3] = ATH490 mice
Protocol: as §3, §4, §5
Ratio of <2 is considered normal.

[4] = Organ weight and histology (liver, spleen, kidney, lung) of ATH490 mice
Protocol: All values are presented as mean±S.E.M. Analyses were performed using GraphPad Prism software (GraphPad Software). Comparison between the groups was made by p value determination using one-way ANOVA. A p value of <0.05 was considered to be statistically significant. […] Each organ weight (%) is normalized with total body weight (BW).
The H&E stained slides were taken with a 20× objective using a Zeiss EPI-fluorescent microscope (bright field). […] At least 10 fields for each slide (one slide per mouse, and 3 mice per group) were examined.
Images were taken with a 10× objective using a Zeiss EPI-fluorescent microscope. […] Drug administration was carried out as described in Table IX and in the Materials and Methods section herein with respect to Animal Studies.
The images of the H&E stained renal tissues were taken with a Zeiss EPI-fluorescent (bright field) microscope using a 10× objective.

[5] = Homo sapiens, MCF7, SRB, 48 h, read-out: GI50 MCF7

GI50 (MDA-MB231; Homo sapiens, MDA-MB-231, 48 h) [µM] | GI50 (MCF7; [5]) [µM] | GI50 (MDA-MB468; Homo sapiens, MDA-MB-468, 48 h) [µM] | melting point [°C] | SMILES | GI50 (MCF10A; Homo sapiens, MCF-10A) [µM] | GI50 (184B5; Homo sapiens, 184B5, SRB, 48 h) [µM] | further results
20.4 ± 1.15 | 8.62 ± 0.38 | 9.21 ± 0.65 | – | O=[N+]([O-])c1cccc(S(=O)(=O)N2CCN(c3ccnc4cc(Cl)ccc34)CC2)c1 [VR-25 (40), 7-Chloro-4-(4-(3-nitrophenylsulfonyl)piperazin-1-yl)quinoline] | 31.1 ± 1.01 | 15.8 ± 0.88 | –
12.7 ± 1.01 | – | 4.63 ± 0.35 | – | CN(C)c1cccc2c(S(=O)(=O)NCCCNc3ccnc4cc(Cl)ccc34)cccc12 [VR-65 (41), 5-Dimethylamino-naphthalene-1-sulfonic acid [3-(7-chloro-quinolin-4-ylamino)-propyl]-amide] | 2.56 ± 0.03 | 1.67 ± 0.08 | –
– | – | – | – | CC(C)C[C@H](NC(=O)[C@H](Cc1ccccc1)NC(=O)c1cnccn1)B(O)O [Bortezomib] | – | – | Cell killing by apoptosis (Jurkat lymphoma cells): neither 6 nM of Bortezomib (FIG. 4, ii) nor 0.75 μM of VR-23 (FIG. 4, iv) induced substantial cell killing by apoptosis; Average colony number (MCF7 cells; Bortezomib at 2 nM, series with non-treated control 34): 15; Average colony number (MCF7 cells; Bortezomib at 4 nM, series with non-treated control 34): 12; Average colony number (MCF7 cells; Bortezomib at 4 nM, series with non-treated control 36): 11; Average colony number (MCF7 cells; Bortezomib at 6 nM, series with non-treated control 36): 6
– | – | – | – | Cn1nnc2c(C(N)=O)ncn2c1=O [Temozolomide] | – | – | # Colonies (Experiment #1) (U87MG brain cancer cells; 1 μM): 64; # Colonies (Experiment #2) (U87MG brain cancer cells; 1 μM): 94; # Colonies (Experiment #1) (U87MG brain cancer cells; 5 μM): 39; # Colonies (Experiment #2) (U87MG brain cancer cells; 5 μM): 50; # Colonies (Experiment #1) (U87MG brain cancer cells; 10 μM): 4; # Colonies (Experiment #2) (U87MG brain cancer cells; 10 μM): 5; # Colonies (Experiment #1) (U87MG brain cancer cells; 20 μM): 2; # Colonies (Experiment #2) (U87MG brain cancer cells; 20 μM): 1; # Colonies (Experiment #1) (U87MG brain cancer cells; 50 μM): 2; # Colonies (Experiment #2) (U87MG brain cancer cells; 50 μM): 1
11.8 ± 0.91 | 4.31 ± 0.32 | 8.34 ± 0.73 | – | O=S(=O)(c1ccc(Cl)cc1)N1CCN(c2ccnc3cc(Cl)ccc23)CC1 [VR-24 (39), 7-Chloro-4-(4-(4-chlorophenylsulfonyl)piperazin-1-yl)quinoline] | 9.7 ± 0.81 | 6.36 ± 0.34 | –
– | – | – | – | N.N.[Cl][Pt][Cl] [Cisplatin, reference compound] | – | – | GI50 (MCF10A): 51.5 ± 0.65 µM; GI50 (MDA-MB231; 48 h): 23.65 ± 0.23 µM; GI50 (MCF7; SRB, 48 h, read-out: GI50 MCF7): 25.8 ± 0.38 µM; GI50 (MDA-MB468; 48 h): 31 ± 0.45 µM; GI50 (184B5; SRB, 48 h): 25.5 ± 0.35 µM
22.5 ± 1.44 | – | 28.6 ± 1.25 | – | CCN(CC)CCCC(C)Nc1ccnc2cc(Cl)ccc12 (stereo not drawn) [Chloroquine, reference compound] | 81.3 ± 1.45 | 76.1 ± 1.13 | GI50 (MCF7; Homo sapiens, MCF7, 48 h, read-out: GI50 MCF7): 38.4 ± 1.2 µM; GI50 (MCF7; Homo sapiens, MCF7, read-out: GI50 value of CQ on MCF7): ~38 µM; Apoptosis in MCF10A (MCF10A non-cancer cells): some cells underwent apoptosis; ALT [1]: 6.03 ± 4.40 IU/L blood
6.16 ± 0.51 | 5.25 ± 0.45 | 5.77 ± 0.41 | – | Cc1ccc(S(=O)(=O)N2CCN(c3ccnc4cc(Cl)ccc34)CC2)cc1 [VR-22 (38), 7-Chloro-4-(4-tosylpiperazin-1-yl)quinoline] | 12.6 ± 0.66 | 9.56 ± 0.53 | –
42.7 ± 0.83 | 20.8 ± 0.23 | 36.5 ± 0.75 | 126 to 128 | Cc1ccc(S(=O)(=O)N2CCN(c3ccnc4cc(C(F)(F)F)ccc34)CC2)cc1 [Compound 8, 4-[4-(Toluene-4-sulfonyl)-piperazin-1-yl]-7-trifluoromethyl-quinoline] | – | 13 ± 0.14 | –
– | – | – | – | CC(=O)O[C@H]1C(=O)[C@@]2(C)[C@H]([C@H](OC(=O)c3ccccc3)[C@]3(O)C[C@H](OC(=O)[C@H](O)[C@@H](NC(=O)c4ccccc4)c4ccccc4)C(C)=C1C3(C)C)[C@]1(OC(C)=O)CO[C@@H]1C[C@@H]2O [Paclitaxel] | – | – | Tumor size D7 ([2]; day 7 post-treatment, dosing as in Table IX B): 47.63 ± 8.67; Tumor size D15 ([2]; day 15 post-treatment, dosing as in Table IX B): 23.25 ± 11.63; Tumor size D18 ([2]; day 18 post-treatment, dosing as in Table IX B): 25.20 ± 13.69; Tumor size D22 ([2]; day 22 post-treatment, dosing as in Table IX B): 16.59 ± 2.66; Reduction of tumor burden ([2]; paclitaxel 20 mg/kg/week): 18.4 fold; Survival (% of the control) (MCF7 cells; 1 nM of Paclitaxel alone): 35.8%; Survival (% of the control) (MCF7 cells; 1 nM of Paclitaxel alone, listed as paclitaxel): 35.8%; Survival (% of the control) (MCF7 cells; 2 nM of Paclitaxel alone): 9.5%; ALT [3]: 35.91 ± 4.26 U/L; AST [3]: 84.4 ± 29.21 U/L; Microscopic Changes (liver) ([4]; ATH490 mice, VR-23, 30 mg/week, Paclitaxel, 20 mg/week): High rate of mitotic cells in liver; Spleen histology (H&E) ([4]; VR-23 30 mg/kg, paclitaxel 20 mg/kg): side effects including germinal center (GC) expansion; Kidney histology (H&E), nephrotoxicity ([4]; VR-23 30 mg/kg, paclitaxel 20 mg/kg, four weeks): high cellularity, endocapillary proliferative glomerulonephritis (enlarged glomeruli), and collapsed Bowman space; Cases with liver cells with densely stained nucleic acids ([4]; paclitaxel 20 mg/kg): approximately 15%; Weight of spleen ([4]; paclitaxel-treated, 29 days post-treatment): weight of spleen was higher
20.3 ± 0.53 | 16.7 ± 0.19 | 18.6 ± 0.55 | 137 to 139 | O=S(=O)(c1ccc(Cl)cc1Cl)N1CCN(c2ccnc3cc(C(F)(F)F)ccc23)CC1 [Compound 10, 4-[4-(2,4-Dichloro-benzenesulfonyl)-piperazin-1-yl]-7-trifluoromethyl-quinoline] | – | 20.4 ± 0.23 | –
40.6 ± 0.81 | 13.5 ± 0.23 | 21.6 ± 0.61 | 145 to 147 | O=S(=O)(c1ccc(Cl)cc1Cl)N1CCN(c2ccnc3cc(Cl)ccc23)CC1 [Compound 5, 7-Chloro-4-(4-(2,4-dichlorophenylsulfonyl)piperazin-1-yl)quinoline] | – | 12.4 ± 0.15 | –
26.2 ± 0.62 | 9.23 ± 0.21 | 18.2 ± 0.54 | 238 to 240 | O=S(=O)(c1ccc(-c2ccccc2)cc1)N1CCN(c2ccnc3cc(Cl)ccc23)CC1 [Compound 3, 7-Chloro-4-(4-(biphenylsulfonyl)piperazin-1-yl)quinoline] | – | 16.4 ± 0.23 | –

SMILES | GI50 (MDA-MB231; Homo sapiens, MDA-MB-231, 48 h) [µM] | GI50 (MCF7; [5]) [µM] | GI50 (MDA-MB468; Homo sapiens, MDA-MB-468, 48 h) [µM] | melting point [°C] | GI50 (MCF10A; Homo sapiens, MCF-10A) [µM] | GI50 (184B5; Homo sapiens, 184B5, SRB, 48 h) [µM] | further results
O=[N+]([O-])c1ccc(S(=O)(=O)NCCCNc2ccnc3cc(Cl)ccc23)c([N+](=O)[O-])c1 [Compound 17, N-[3-(7-Chloro-quinolin-4-ylamino)-propyl]-2,4-dinitro-benzenesulfonamide] | 8.85 ± 0.71 | 6.16 ± 0.32 | 7.35 ± 0.23 | 238 to 240 | – | – | GI50 (184B5; Homo sapiens, 184B5, 48 h): 9.09 ± 0.56 µM
